Data published in ChEMBL document CHEMBL3414509, “A FRET-based assay for screening SIRT6 modulators” (Eur J Med Chem, 2015).
Calls of active or inactive are those of the source. The rule behind the calls is not given here. Peptide text beside a SMILES is read from it. * marks the point of attachment. X1 = CN(C)c1ccc(/N=N/c2ccc(C(=O)*)cc2)cc1; EDANS = O=S(=O)(O)c1cccc2c(NCCN*)cccc12; Myristoyl = CCCCCCCCCCCCCC(=O)*

Legend:
[1] = target: NAD-dependent protein deacylase sirtuin-6 (Homo sapiens) (UniProt Q8N6T7); assay: Inhibition of SIRT6 (unknown origin) at 300 uM using (DABCYL)ISGASE(MyK)DIVHSE(EDANS)G substrate in presence of NAD followed by 1 hr incubation with trypsin by FRET assay
NAD-dependent protein deacylase sirtuin-6 (Homo sapiens), sequence (Q8N6T7 whole entry): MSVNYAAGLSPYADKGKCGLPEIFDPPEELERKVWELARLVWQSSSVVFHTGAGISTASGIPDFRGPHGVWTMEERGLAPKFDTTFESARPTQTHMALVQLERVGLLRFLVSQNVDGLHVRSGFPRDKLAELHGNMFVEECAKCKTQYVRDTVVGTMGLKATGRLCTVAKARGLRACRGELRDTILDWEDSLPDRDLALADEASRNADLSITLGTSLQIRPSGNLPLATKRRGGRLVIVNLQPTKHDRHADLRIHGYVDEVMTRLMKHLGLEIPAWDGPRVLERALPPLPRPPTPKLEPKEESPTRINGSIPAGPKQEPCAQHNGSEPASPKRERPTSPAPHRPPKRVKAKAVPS

[2] = target: T1, NAD-dependent protein deacetylase sirtuin-1 (Homo sapiens) (UniProt Q96EB6); assay: Inhibition of SIRT1 (unknown origin) at 300 uM using (DABCYL)ISGASE(AcK)DIVHSE(EDANS)G substrate in presence of NAD followed by 1 hr incubation with trypsin by FRET assay
T1 sequence (whole entry): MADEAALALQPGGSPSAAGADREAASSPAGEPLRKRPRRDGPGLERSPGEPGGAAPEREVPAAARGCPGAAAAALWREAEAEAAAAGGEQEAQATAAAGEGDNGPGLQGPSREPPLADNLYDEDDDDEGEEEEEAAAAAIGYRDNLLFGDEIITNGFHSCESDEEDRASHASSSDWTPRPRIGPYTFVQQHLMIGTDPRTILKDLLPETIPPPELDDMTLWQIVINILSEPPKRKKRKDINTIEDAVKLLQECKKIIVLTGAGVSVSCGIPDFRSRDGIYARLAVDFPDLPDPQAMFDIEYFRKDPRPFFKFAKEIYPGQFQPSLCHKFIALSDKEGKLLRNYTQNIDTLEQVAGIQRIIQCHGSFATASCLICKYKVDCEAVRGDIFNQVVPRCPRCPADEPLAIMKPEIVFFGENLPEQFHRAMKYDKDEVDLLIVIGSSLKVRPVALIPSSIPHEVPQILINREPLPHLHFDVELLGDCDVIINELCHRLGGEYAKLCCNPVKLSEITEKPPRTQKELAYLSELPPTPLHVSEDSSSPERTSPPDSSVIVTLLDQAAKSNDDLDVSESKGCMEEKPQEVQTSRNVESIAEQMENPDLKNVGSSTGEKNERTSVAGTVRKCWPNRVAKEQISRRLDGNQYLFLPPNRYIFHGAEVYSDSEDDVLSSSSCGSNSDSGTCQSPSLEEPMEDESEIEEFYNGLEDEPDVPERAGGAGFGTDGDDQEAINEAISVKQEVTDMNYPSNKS

Trypsin (Homo sapiens) = Trypsin (Homo sapiens) (UniProt P07477+P07478+P35030); assay: Activity of trypsin (unknown origin) assessed as enzyme-mediated compound hydrolysis by measuring increase in fluorescence at 10 uM incubated for 1 hr at 37 degC relative to control; assay type: protein assay
[3] = target: NAD-dependent protein deacylase sirtuin-6 (Homo sapiens) (UniProt Q8N6T7); assay: Activity of SIRT6 (unknown origin) assessed as enzyme-mediated compound hydrolysis at 10 uM incubated for 60 mins in presence of NAD followed by 1 hr incubation with trypsin

SMILES	inhibition [1] [%]	further results
N#C/C(=C\c1ccc(-c2cc(Cl)ccc2Cl)o1)C(=O)Nc1cccc2ncccc12	< 50	–
NC(=O)c1cccnc1	> 50	inhibition [2]: Active
O=C1CCc2c(ccc3ccccc23)O1	< 50	–
CC[C@H](C)[C@H](NC(=O)c1ccc(/N=N/c2ccc(N(C)C)cc2)cc1)C(=O)N[C@@H](CO)C(=O)NCC(=O)N[C@@H](C)C(=O)N[C@@H](CO)C(=O)N[C@@H](CCC(=O)O)C(=O)N[C@@H](CCCCN)C(=O)N[C@@H](CC(=O)O)C(=O)N[C@H](C(=O)N[C@H](C(=O)N[C@@H](Cc1cnc[nH]1)C(=O)N[C@@H](CO)C(=O)N[C@@H](CCC(=O)NCCNc1cccc2c(S(=O)(=O)O)cccc12)C(=O)NCC(=O)O)C(C)C)[C@@H](C)CC (HELM PEPTIDE1{[CN(C)c1ccc(/N=N/c2ccc(C(=O)[*:2])cc2)cc1].I.S.G.A.S.E.K.D.I.V.H.S.E.G}|CHEM1{[O=S(=O)(O)c1cccc2c(NCCN[*:1])cccc12]}$PEPTIDE1,CHEM1,14:R3-1:R1$$$V2.0)	–	fold change (FC) (Trypsin (Homo sapiens)): 15
CC(NC(=O)c1ccccc1/N=C/c1c(O)ccc2ccccc12)c1ccccc1 (configuration not stated)	< 50	–
CCCCCCCCCCCCCC(=O)NCCCC[C@H](NC(=O)[C@H](CCC(=O)O)NC(=O)[C@H](CO)NC(=O)[C@H](C)NC(=O)CNC(=O)[C@H](CO)NC(=O)[C@@H](NC(=O)c1ccc(/N=N/c2ccc(N(C)C)cc2)cc1)[C@@H](C)CC)C(=O)N[C@@H](CC(=O)O)C(=O)N[C@H](C(=O)N[C@H](C(=O)N[C@@H](Cc1cnc[nH]1)C(=O)N[C@@H](CO)C(=O)N[C@@H](CCC(=O)NCCNc1cccc2c(S(=O)(=O)O)cccc12)C(=O)NCC(=O)O)C(C)C)[C@@H](C)CC (X1-ISGASEK(Myristoyl)DIVHSE(EDANS)G-OH)	–	fold change (FC) [3]: 10
